According to ChEMBL document CHEMBL1201862, “PubChem BioAssay data set” (2004):
The source made the active and inactive calls.

What was measured:
Assay type in all cases: functional
[1] = target: Botulinum neurotoxin type F (Clostridium botulinum, UniProt P30996); assay: High-throughput multiplex microsphere dose response for inhibitors of toxin protease, specifically Botulinum neurotoxin light chain F protease, compounds from Cherry Pick 02.; settings: read-out: EC50_MICROM
[2] = target: Arf-GAP with SH3 domain, ANK repeat and PH domain-containing protein 1 (Homo sapiens, UniProt Q9ULH1);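 note: biochemical fluorescence polarization dose–response screen measuring inhibition of ASAP1; ASAP1 GAP domain stimulating GTP hydrolysis by truncated human ARF1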
[3] = target: T1, Carboxy-terminal domain RNA polymerase II polypeptide A small phosphatase 1 (Homo sapiens, UniProt Q9GZU7); assay: inhibitors of CTDSP1, concentration-response testing, biochemical assay, absorbance-based, actives from ultra-high-throughput screening (AID 540297)
T1 sequence (Q9GZU7 whole entry): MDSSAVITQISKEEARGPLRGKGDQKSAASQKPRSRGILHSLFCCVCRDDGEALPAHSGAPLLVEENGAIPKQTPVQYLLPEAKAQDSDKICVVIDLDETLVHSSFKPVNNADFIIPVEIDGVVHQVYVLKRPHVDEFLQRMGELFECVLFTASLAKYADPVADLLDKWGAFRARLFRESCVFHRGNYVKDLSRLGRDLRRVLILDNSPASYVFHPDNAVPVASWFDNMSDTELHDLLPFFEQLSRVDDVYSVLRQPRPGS

[4] = Counterscreen for activators of the function of SWI/SNF related, matrix associated, actin dependent regulator of chromatin, subfamily a, member 2 (SMARCA2, BRM): Luminescence-based cell-based high throughput dose response assay to identify non-selective compounds using the VP16 reporter assay.
[5] = target: SWI/SNF-related matrix-associated actin-dependent regulator of chromatin subfamily A member 2 (Homo sapiens, UniProt P51531); assay: Luminescence-based cell-based high throughput dose response assay to identify activators of the function of SWI/SNF related, matrix associated, actin dependent regulator of chromatin, subfamily a, member 2 (SMARCA2, BRM).
Sequence of SWI/SNF-related matrix-associated actin-dependent regulator of chromatin subfamily A member 2 (P51531 whole entry): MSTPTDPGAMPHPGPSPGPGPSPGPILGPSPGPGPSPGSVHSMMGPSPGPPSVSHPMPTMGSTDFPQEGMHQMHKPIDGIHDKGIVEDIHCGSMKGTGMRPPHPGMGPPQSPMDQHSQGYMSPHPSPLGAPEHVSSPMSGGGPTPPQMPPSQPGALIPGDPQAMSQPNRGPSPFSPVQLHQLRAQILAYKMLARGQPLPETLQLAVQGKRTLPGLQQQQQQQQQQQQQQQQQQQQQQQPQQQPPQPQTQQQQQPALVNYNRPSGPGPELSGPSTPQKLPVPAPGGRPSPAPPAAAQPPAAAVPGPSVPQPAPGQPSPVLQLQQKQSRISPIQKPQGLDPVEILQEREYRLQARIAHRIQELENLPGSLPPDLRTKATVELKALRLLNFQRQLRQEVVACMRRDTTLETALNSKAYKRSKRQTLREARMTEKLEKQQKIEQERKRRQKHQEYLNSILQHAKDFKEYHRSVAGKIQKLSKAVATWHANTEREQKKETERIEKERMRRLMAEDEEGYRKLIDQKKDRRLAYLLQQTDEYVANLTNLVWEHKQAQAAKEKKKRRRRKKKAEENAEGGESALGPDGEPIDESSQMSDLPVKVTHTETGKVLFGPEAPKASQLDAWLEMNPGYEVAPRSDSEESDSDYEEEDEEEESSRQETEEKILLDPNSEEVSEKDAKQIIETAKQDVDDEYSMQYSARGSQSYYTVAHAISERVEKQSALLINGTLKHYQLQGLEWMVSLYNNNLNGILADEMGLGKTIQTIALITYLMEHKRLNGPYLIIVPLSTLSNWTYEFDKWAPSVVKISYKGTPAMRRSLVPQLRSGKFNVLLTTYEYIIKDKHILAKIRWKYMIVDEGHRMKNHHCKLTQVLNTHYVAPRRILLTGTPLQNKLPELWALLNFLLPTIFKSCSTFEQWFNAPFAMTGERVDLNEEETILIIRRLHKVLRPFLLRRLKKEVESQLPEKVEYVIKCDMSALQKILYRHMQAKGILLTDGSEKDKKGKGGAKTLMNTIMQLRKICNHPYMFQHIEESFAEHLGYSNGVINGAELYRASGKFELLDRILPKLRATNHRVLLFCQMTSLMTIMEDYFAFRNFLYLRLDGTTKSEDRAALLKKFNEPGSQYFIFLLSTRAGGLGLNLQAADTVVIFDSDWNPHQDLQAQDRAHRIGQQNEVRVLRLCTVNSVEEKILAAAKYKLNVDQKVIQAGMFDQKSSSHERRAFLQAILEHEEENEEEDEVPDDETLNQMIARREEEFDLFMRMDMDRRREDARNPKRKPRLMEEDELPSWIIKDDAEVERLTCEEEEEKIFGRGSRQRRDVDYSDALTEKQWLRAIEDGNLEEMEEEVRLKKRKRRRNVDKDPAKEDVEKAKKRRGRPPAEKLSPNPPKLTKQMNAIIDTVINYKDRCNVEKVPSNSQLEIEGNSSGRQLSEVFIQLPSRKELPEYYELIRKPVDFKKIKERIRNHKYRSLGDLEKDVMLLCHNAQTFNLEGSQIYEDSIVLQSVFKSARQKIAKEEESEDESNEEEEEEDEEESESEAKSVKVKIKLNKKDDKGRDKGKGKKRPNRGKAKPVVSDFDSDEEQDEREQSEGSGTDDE

Sequence of Botulinum neurotoxin type F (P30996 1-436 limits assumed): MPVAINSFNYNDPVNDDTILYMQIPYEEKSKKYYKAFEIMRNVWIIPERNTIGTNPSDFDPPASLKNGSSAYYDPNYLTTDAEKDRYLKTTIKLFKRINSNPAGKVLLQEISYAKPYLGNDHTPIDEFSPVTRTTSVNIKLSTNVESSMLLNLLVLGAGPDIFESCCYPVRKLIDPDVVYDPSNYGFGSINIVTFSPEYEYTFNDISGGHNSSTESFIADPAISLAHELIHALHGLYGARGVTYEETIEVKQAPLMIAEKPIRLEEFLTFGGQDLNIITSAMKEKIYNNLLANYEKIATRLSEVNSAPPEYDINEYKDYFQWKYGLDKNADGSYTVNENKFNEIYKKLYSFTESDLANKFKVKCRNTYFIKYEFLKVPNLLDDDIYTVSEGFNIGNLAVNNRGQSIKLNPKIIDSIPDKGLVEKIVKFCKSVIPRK
Sequence of Arf-GAP with SH3 domain, ANK repeat and PH domain-containing protein 1 (Q9ULH1 whole entry, the tested form may be a part): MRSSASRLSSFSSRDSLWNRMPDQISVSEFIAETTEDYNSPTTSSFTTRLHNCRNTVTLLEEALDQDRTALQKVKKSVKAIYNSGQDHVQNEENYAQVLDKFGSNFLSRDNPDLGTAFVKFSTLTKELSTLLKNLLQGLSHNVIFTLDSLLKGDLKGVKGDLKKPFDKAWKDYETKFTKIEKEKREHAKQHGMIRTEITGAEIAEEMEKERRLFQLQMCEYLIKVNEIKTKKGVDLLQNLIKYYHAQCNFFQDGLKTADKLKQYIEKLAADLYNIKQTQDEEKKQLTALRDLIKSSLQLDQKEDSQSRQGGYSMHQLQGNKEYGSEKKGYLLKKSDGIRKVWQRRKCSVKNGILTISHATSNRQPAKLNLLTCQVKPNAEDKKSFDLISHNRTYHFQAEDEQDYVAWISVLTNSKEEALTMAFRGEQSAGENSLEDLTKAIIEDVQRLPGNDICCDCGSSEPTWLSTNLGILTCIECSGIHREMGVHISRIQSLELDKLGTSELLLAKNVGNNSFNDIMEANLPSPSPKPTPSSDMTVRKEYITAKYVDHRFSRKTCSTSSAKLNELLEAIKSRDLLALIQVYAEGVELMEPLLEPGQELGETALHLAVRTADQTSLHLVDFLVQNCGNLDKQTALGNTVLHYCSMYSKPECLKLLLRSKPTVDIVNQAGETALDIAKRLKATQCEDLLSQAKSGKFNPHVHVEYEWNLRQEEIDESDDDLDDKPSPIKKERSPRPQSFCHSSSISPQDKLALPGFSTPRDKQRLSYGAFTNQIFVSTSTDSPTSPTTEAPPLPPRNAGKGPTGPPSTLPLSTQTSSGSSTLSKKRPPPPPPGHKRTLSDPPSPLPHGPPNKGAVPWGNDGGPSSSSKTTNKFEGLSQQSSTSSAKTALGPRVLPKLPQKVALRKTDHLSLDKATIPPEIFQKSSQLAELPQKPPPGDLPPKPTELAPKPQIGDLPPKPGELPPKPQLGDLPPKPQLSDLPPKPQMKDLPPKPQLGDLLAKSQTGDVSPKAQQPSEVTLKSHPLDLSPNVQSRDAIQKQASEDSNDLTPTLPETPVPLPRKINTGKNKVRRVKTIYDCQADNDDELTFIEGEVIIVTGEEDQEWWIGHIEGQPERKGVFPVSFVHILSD

Cc1cc2cc(CNC(=O)c3ccc(S(=O)(=O)N4CCCCC4)cc3)ccc2[nH]1
EC50 [1]: > 20 µM (inactive)

COc1ccc2cc(C(=O)Nc3ccc(Cl)cc3)sc(=O)c2c1OC
IC50 [2]: 12.6 µM (inactive)
IC50 [3]: 3.51 µM (active)

COc1ccc(-c2nc(C#N)c(NCC3CCCO3)o2)cc1 (stereo not given)
EC50 [4]: > 91.1 µM (inactive)
EC50 [5]: > 91.1 µM (inactive)
